Experimental data taken from ChEMBL document CHEMBL1909046, “DrugMatrix in vitro pharmacology data”.

How the values were obtained:
[1] = target: Prostaglandin G/H synthase 1 (Homo sapiens, UniProt P23219); assay: biochemical; format: tissue-based, Platelet; conditions: platelet;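 further: inhibition of COX-1 enzyme activity, with arachidonic acid supplied as substrate; in other assays of this panel Not Active means under 50% inhibition at 10 µM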
Vasopressin V1a receptor = Vasopressin V1a receptor (Homo sapiens, UniProt P37288); format: cell membranes, Membrane; conditions: hek293; further: in other assays of this panel Not Active means under 50% inhibition at 10 µM
Nitric oxide synthase 1 = Nitric oxide synthase 1 (Rattus norvegicus, UniProt P29476); format: tissue-based, Cerebellum; further: in other assays of this panel Not Active means under 50% inhibition at 10 µM
B2 bradykinin receptor = target: T1, B2 bradykinin receptor (Homo sapiens, UniProt P30411); format: cell membranes, Membrane; conditions: chem-1; further: in other assays of this panel Not Active means under 50% inhibition at 10 µM
T1 sequence (P30411 whole entry): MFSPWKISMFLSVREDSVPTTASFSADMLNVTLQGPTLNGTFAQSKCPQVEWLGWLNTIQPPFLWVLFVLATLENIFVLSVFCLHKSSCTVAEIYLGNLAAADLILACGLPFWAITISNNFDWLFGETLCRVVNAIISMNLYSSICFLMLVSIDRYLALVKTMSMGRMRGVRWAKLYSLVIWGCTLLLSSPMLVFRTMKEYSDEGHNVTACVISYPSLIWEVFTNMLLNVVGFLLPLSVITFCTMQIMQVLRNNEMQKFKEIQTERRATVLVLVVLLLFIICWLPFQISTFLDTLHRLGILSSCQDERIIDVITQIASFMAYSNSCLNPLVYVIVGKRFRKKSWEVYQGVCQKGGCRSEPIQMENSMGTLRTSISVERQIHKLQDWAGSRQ

[2] = DRUGMATRIX: Imidazoline I2, Central radioligand binding (ligand: [3H] Idazoxan); format: cell membranes, Rattus norvegicus, Wistar, Cerebral cortex, Membrane; conditions: Not Active = under 50% inhibition at 10 µM
[3] = target: T2, Nitric oxide synthase, inducible (Mus musculus, UniProt P29477); parameters: species or system Escherichia coli
T2 sequence (P29477 whole entry): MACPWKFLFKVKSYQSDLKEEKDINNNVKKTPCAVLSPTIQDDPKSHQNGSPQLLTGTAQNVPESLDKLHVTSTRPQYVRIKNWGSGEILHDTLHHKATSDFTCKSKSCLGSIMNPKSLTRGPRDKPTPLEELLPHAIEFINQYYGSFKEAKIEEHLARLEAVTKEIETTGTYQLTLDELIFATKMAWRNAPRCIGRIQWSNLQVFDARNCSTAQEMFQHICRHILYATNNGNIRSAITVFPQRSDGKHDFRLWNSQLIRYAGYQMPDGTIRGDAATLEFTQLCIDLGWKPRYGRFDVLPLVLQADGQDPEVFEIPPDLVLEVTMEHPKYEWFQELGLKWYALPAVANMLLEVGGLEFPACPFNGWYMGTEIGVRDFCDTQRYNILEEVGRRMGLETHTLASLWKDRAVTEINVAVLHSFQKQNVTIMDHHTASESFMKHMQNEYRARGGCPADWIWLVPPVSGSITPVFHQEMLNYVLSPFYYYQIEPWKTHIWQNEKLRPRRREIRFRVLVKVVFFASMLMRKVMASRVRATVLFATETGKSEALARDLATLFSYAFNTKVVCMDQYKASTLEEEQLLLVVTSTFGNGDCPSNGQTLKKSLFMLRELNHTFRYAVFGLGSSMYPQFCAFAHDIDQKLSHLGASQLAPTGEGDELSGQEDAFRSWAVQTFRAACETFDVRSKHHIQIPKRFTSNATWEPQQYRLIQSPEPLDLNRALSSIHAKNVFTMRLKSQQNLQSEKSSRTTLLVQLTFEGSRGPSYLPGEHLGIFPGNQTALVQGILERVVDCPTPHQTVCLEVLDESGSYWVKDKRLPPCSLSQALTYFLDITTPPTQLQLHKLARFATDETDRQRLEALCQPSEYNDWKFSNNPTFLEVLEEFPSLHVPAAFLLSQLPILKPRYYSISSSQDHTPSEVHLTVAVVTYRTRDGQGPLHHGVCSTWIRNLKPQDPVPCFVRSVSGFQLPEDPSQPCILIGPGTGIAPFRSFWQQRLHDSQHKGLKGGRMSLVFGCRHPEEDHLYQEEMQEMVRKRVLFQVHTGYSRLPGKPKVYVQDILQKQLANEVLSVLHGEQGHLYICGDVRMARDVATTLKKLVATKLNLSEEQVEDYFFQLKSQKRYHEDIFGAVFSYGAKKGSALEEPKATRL

Neutrophil elastase = target: T3, Neutrophil elastase (Homo sapiens, UniProt P08246); format: tissue-based
T3 sequence (P08246 whole entry): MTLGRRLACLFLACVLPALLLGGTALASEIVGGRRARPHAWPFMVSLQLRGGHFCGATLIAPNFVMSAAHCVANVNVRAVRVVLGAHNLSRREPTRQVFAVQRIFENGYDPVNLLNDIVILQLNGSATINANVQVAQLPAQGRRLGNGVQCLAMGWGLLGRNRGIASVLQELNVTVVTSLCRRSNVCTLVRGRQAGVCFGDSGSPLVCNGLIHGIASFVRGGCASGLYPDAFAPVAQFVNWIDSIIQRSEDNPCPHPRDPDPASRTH

[4] = target: Protein phosphatase 3 catalytic subunit alpha (Homo sapiens, UniProt Q08209); parameters: species or system Escherichia coli
[5] = DRUGMATRIX: Tumor Necrosis Factor (TNF), Non-Selective radioligand binding (ligand: [125I] TNF-alpha); format: cell membranes, Membrane; conditions: u-937; Not Active = under 50% inhibition at 10 µM
[6] = target: T4, Muscarinic acetylcholine receptor M2 (Homo sapiens, UniProt P08172); format: cell membranes, CHO-K1, Membrane; conditions: cho-k1; further: in other assays of this panel Not Active means under 50% inhibition at 10 µM
T4 sequence (P08172 whole entry): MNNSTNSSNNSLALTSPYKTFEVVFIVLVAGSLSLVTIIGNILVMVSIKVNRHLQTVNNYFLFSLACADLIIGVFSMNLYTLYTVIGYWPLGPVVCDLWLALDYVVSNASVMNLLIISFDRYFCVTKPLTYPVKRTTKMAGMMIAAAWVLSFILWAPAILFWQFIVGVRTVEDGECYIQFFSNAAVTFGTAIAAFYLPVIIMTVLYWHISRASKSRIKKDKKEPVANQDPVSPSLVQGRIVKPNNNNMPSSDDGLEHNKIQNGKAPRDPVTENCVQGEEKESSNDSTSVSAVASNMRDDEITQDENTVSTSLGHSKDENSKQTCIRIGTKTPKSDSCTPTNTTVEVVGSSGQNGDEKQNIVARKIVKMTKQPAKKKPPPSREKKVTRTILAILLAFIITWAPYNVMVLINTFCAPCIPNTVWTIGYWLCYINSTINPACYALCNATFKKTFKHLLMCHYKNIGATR

[7] = DRUGMATRIX: Leukotriene, BLT (LTB4) radioligand binding (ligand: [3H]LTB4); format: cell membranes, Membrane; conditions: u-937; Not Active = under 50% inhibition at 10 µM
[8] = target: Matrix metalloproteinase-9 (Homo sapiens, UniProt P14780); format: cell-based
Insulin receptor = Insulin receptor (Rattus norvegicus, UniProt P15127); format: cell membranes, Wistar, Liver, Membrane; further: in other assays of this panel Not Active means under 50% inhibition at 10 µM
Chain of Insulin receptor (P15127 27-759 limits assumed): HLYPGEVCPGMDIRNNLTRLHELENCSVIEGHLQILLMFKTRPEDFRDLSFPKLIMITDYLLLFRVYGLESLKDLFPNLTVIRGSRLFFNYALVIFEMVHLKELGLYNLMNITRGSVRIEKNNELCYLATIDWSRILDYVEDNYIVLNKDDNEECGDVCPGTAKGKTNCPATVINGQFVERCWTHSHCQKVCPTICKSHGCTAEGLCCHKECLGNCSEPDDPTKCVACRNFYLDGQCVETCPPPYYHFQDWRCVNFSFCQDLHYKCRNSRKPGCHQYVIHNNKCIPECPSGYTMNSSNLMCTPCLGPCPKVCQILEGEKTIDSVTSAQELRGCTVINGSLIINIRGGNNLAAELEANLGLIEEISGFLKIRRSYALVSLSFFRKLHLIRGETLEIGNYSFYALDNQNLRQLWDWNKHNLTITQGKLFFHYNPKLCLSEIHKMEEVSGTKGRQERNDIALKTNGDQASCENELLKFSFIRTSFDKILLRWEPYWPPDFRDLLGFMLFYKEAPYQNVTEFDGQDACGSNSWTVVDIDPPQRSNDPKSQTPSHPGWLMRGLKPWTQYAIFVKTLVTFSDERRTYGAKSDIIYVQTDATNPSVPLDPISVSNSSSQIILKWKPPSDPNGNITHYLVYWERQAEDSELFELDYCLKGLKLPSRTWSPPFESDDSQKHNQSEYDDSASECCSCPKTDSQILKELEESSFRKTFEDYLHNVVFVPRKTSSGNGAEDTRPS
Chain of Insulin receptor (P15127 764-1383 limits assumed): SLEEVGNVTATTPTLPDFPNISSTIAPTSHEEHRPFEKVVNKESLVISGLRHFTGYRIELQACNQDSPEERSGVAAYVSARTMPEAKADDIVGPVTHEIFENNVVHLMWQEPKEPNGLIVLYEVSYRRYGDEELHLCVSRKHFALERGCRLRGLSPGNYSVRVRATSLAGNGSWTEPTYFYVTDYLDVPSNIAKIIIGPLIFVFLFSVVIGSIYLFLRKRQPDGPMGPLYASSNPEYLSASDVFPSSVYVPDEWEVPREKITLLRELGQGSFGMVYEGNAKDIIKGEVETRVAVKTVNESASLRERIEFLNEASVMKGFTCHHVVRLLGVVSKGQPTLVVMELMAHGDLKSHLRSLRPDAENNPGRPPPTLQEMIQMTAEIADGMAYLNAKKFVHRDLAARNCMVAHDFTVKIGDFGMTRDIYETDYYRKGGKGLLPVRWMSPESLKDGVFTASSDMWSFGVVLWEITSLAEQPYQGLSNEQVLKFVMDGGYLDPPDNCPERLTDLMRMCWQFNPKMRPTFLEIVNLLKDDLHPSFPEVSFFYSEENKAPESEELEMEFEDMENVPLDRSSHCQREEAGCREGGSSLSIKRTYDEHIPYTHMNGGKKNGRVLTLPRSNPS

Chain of Vasopressin V1a receptor (P37288 whole entry): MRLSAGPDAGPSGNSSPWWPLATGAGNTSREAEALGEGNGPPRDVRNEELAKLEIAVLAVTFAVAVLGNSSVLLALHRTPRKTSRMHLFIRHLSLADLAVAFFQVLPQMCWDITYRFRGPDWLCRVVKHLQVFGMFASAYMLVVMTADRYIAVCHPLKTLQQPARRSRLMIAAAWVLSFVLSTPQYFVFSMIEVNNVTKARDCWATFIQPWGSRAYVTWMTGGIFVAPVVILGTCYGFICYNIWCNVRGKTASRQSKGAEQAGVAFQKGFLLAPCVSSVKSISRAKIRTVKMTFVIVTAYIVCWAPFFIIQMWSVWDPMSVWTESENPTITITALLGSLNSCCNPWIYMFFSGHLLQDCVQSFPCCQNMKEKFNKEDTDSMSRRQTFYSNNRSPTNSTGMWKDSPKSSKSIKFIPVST
Chain of Matrix metalloproteinase-9 (P14780 whole entry): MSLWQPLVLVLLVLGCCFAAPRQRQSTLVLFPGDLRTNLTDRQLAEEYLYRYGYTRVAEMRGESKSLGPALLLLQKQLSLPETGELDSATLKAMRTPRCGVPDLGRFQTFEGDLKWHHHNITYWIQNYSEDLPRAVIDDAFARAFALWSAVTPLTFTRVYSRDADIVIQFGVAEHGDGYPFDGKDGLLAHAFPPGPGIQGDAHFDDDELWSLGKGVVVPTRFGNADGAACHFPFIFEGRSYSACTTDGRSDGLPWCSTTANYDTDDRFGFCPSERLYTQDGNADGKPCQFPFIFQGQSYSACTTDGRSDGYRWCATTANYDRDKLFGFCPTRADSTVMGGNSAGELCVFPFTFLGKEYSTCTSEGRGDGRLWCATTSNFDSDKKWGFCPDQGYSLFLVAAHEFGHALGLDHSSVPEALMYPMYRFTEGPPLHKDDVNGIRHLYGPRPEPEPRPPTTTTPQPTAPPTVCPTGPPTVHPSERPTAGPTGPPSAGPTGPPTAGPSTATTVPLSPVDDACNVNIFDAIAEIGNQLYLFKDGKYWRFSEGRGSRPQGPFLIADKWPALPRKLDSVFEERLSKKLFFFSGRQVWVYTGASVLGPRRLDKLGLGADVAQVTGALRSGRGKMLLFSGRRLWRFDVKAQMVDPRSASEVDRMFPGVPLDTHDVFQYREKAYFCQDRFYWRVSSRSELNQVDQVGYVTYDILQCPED
Chain of Nitric oxide synthase 1 (P29476 whole entry): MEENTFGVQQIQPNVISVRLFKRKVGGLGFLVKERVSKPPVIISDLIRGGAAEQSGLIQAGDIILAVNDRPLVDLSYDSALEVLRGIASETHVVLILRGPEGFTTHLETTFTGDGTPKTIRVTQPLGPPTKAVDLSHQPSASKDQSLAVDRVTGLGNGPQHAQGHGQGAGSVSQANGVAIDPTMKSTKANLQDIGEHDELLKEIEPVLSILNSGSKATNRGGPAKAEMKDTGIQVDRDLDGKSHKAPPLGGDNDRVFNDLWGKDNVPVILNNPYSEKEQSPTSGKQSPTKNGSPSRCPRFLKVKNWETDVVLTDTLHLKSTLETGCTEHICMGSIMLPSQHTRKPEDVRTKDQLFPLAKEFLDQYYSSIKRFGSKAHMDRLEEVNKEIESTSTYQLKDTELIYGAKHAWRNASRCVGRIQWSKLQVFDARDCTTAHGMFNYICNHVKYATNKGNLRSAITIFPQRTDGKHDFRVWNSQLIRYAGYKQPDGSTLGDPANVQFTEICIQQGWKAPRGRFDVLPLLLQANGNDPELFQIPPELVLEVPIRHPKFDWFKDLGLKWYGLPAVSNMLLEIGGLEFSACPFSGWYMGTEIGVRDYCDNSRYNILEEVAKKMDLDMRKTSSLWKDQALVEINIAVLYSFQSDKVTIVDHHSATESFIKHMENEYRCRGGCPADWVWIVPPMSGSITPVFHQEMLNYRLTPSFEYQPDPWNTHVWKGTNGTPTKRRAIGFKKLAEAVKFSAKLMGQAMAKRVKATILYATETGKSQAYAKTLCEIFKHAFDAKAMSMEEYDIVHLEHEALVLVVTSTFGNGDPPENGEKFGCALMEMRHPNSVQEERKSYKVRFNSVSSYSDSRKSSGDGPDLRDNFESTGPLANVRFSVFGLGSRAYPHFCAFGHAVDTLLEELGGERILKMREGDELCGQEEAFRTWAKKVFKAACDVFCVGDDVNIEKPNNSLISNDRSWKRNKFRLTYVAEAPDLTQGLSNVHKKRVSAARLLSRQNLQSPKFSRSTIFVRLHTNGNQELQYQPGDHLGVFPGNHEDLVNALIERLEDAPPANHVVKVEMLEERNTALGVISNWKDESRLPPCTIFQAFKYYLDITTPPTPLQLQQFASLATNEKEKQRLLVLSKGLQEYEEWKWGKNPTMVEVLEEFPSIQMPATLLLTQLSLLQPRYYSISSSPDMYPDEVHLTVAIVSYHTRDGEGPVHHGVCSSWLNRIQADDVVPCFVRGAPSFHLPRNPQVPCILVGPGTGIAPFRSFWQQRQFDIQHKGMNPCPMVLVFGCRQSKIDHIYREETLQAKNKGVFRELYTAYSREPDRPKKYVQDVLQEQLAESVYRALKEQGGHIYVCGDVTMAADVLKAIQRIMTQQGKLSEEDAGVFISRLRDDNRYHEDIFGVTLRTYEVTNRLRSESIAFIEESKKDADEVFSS
Chain of Prostaglandin G/H synthase 1 (P23219 whole entry): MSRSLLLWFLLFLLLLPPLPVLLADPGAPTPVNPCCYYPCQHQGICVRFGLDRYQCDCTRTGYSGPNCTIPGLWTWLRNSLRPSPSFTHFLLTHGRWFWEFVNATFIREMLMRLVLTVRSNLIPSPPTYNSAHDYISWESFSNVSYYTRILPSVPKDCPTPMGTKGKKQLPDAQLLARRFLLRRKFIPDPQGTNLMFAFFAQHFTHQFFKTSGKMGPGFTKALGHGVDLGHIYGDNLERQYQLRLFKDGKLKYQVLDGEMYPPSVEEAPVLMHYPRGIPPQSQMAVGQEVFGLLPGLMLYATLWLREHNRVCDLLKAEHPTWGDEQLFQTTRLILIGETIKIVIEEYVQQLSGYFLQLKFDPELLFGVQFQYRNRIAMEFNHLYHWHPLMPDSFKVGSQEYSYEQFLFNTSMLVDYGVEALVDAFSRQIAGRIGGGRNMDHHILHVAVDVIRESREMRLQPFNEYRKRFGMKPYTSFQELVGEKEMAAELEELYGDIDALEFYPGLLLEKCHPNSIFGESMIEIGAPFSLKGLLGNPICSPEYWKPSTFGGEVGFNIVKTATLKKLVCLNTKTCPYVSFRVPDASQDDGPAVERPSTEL

Cc1ncc([N+](=O)[O-])n1CC(C)O (configuration not stated) [SECNIDAZOLE]
Not Active: IC50 [1] | IC50 (Vasopressin V1a receptor) | IC50 (Nitric oxide synthase 1) | IC50 (B2 bradykinin receptor) | IC50 [2] | Ki [2] | IC50 [3] | IC50 (Neutrophil elastase) | IC50 [4] | IC50 [5] | Ki [5] | IC50 [6] | IC50 [7] | Ki [7] | IC50 [8] | IC50 (Insulin receptor)

CCC[C@@H]1C[C@@H](C(=O)N[C@@H]([C@H]2O[C@H](SC)[C@H](O)[C@@H](O)[C@H]2O)[C@@H](C)O)N(C)C1 [LINCOMYCIN]
Not Active: IC50 [1] | IC50 (Vasopressin V1a receptor) | IC50 (Nitric oxide synthase 1) | IC50 (B2 bradykinin receptor) | IC50 [2] | Ki [2] | IC50 [3] | IC50 (Neutrophil elastase) | IC50 [4] | IC50 [5] | Ki [5] | IC50 [6] | IC50 [7] | Ki [7] | IC50 [8] | IC50 (Insulin receptor)
